Measurements reported in patent US8247211B2, “Glycopeptide antibiotics” (American Cyanamid Company, priority 2001, dated 2012).
In brackets after ≈: the same amount, converted by molar mass.

What was measured:
[1] = test system: Streptococcus sp.; assay: In vitro antibacterial evaluation: minimum inhibitory concentration (MIC), broth dilution method; assay type: cell-based; conditions: 18 hours at 35° C.
Method in brief: (§1)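 Susceptibility determined by NCCLS-recommended broth dilution (M7-A2), Muller-Hinton II […]. Concentration span 64-0.06 μg/mL, inoculum 5×10^5 CFU/mL. Isolates include strains resistant to methicillin, penicillin and/or vancomycin.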

[2] = test system: Staphylococcus sp.; assay: as above; assay type: cell-based; conditions: 18 hours at 35° C.
Method in brief: as §1

[3] = test system: Enterococcus sp.; assay: as above; assay type: cell-based; conditions: 18 hours at 35° C.
Method in brief: as §1

[4] = test system: Escherichia coli; assay: as above; assay type: cell-based; conditions: Escherichia coli (GC 4560); 18 hours at 35° C.
Method in brief: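 Test strains, among them recent clinical isolates carrying methicillin, penicillin and/or vancomycin resistance, were inoculated at 5×10^5 CFU/mL. A broth dilution series spanning 64-0.06 μg/mL in Muller-Hinton II […] (NCCLS M7-A2) defined the MIC as the lowest growth-inhibiting concentration.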

[5] = test system: Staphylococcus aureus-SMITH (GC 4543); assay: Acute lethal infection in mice (ED50); assay type: in vivo; conditions: female CD-1 mice, intraperitoneal challenge, intravenous dose 30 min. after infection, 7 day survival ratios
Method in brief: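 Bacteria suspended in Trypticase Soy Broth or hog gastric mucin are injected intraperitoneally into female CD-1 mice at a dose killing untreated animals within 24-48 hr. Thirty minutes later, test agent is administered intravenously. Survival at day 7 is scored.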

[6] = broth dilution, inoculum 5×10^5 CFU/mL

In the case of `CC(c1ccccc1)C1NC(=O)CNC(=O)C(CO)NC(=O)C(C(O)C2CNC(=N)N2C2OC(CO)C(O)C(O)C2O)NC(=O)C(C(O)C2CNC(=N)N2)NC(=O)C(Cc2ccc(OC3OC(CO)C(OC4OC(COCc5ccc(OCc6ccccc6)cc5)C(O)C(O)C4O)C(O)C3O)cc2)NC1=O` (stereo not drawn) [Example 231, Cyclo[glycyl-β-methylphenylalanyl-O-[4-O-[6-O-[4-(phenylmethoxy)benzyl]hexopyranosyl]-hexopyranosyl)tyrosyl-3-(2-iminoimidazolidin-4-yl)seryl-3-(3-hexopyranosyl-2-iminoimidazolidin-4-yl)serylseryl]], the “MIC Streptococcus agalactiae (GC 4564)” value ([1]; Streptococcus agalactiae (GC 4564)) is reported as <0.06 µg/mL, the “MIC Streptococcus pneumoniae (ATCC 6301)” value ([1]; Streptococcus pneumoniae (ATCC 6301)) is reported as <0.06 µg/mL and the “MIC Streptococcus pneumoniae (GC 1894)” value ([1]; Streptococcus pneumoniae (GC 1894)) is reported as <0.06 µg/mL. The “MIC Streptococcus pneumoniae (GC 4565)” value ([1]; Streptococcus pneumoniae (GC 4565)) was <0.06 µg/mL, the “MIC Streptococcus pyogenes (GC 4563)” value ([1]; Streptococcus pyogenes (GC 4563)) was <0.06 µg/mL and the “MIC Streptococcus agalactiae (GC 4564)” value [1, 6] was <0.06 µg/mL. The “MIC Streptococcus pneumoniae (ATCC 6301)” value [1, 6] was <0.06 µg/mL, the “MIC Streptococcus pneumoniae (GC 1894)” value [1, 6] was <0.06 µg/mL and the “MIC Streptococcus pneumoniae (GC 4565)” value [1, 6] was <0.06 µg/mL. For the same compound, the “MIC Streptococcus pyogenes (GC 4563)” value [1, 6] was <0.06 µg/mL, the “MIC Coagulase Negative Staphylococcus (GC 4547)” value ([2]; Coagulase Negative Staphylococcus (GC 4547)) was 1 to 2 µg/mL and the “MIC Coagulase Negative Staphylococcus (GC 4548)” value ([2]; Coagulase Negative Staphylococcus (GC 4548)) was 0.5 to 1 µg/mL. For the same compound, the “MIC Coagulase Negative Staphylococcus (GC 4551)” value ([2]; Coagulase Negative Staphylococcus (GC 4551)) was 1 µg/mL (≈ 0.67 µM), the “MIC Coagulase Negative Staphylococcus (GC 6257)” value ([2]; Coagulase Negative Staphylococcus (GC 6257)) was 0.5 to 1 µg/mL and the “MIC Staphylococcus aureus (ATCC 29213)” value ([2]; Staphylococcus aureus (ATCC 29213)) was 1 to 4 µg/mL. For the same compound, the “MIC Staphylococcus aureus (GC 1131)” value ([2]; Staphylococcus aureus (GC 1131)) was 2 to 4 µg/mL, the “MIC Staphylococcus aureus (GC 3051)” value ([2]; Staphylococcus aureus (GC 3051)) was 1 to 2 µg/mL and the “MIC Staphylococcus aureus (GC 3053)” value ([2]; Staphylococcus aureus (GC 3053)) was 1 to 2 µg/mL. The “MIC Staphylococcus aureus (GC 4541)” value ([2]; Staphylococcus aureus (GC 4541)) was 1 to 4 µg/mL, the “MIC Staphylococcus aureus (GC 4542)” value ([2]; Staphylococcus aureus (GC 4542)) was 2 to 4 µg/mL and the “MIC Staphylococcus aureus (GC 4544)” value ([2]; Staphylococcus aureus (GC 4544)) was 2 to 4 µg/mL. The “MIC Staphylococcus aureus (GC 4545)” value ([2]; Staphylococcus aureus (GC 4545)) was 1 to 4 µg/mL, the “MIC Staphylococcus aureus-SMITH (GC 4543)” value ([2]; Staphylococcus aureus-SMITH (GC 4543)) was 2 µg/mL (≈ 1.34 µM) and the “MIC Staphylococcus haemolyticus (GC 4546)” value ([2]; Staphylococcus haemolyticus (GC 4546)) was 1 to 4 µg/mL. For the same compound, the “MIC Enterococcus avium (GC 4558)” value ([3]; Enterococcus avium (GC 4558)) was 2 to 4 µg/mL, the “MIC Enterococcus faecalis (ATCC 29212)” value ([3]; Enterococcus faecalis (ATCC 29212)) was 4 µg/mL (≈ 2.68 µM) and the “MIC Enterococcus faecalis (GC 2242)” value ([3]; Enterococcus faecalis (GC 2242)) was 4 µg/mL (≈ 2.68 µM). The “MIC Enterococcus faecalis (GC 2691)” value ([3]; Enterococcus faecalis (GC 2691)) was 2 to 4 µg/mL, the “MIC Enterococcus faecalis (GC 3059)” value ([3]; Enterococcus faecalis (GC 3059)) was 2 to 4 µg/mL and the “MIC Enterococcus faecalis (GC 4552)” value ([3]; Enterococcus faecalis (GC 4552)) was 4 µg/mL (≈ 2.68 µM). The “MIC Enterococcus faecalis (GC 4553)” value ([3]; Enterococcus faecalis (GC 4553)) was 4 µg/mL (≈ 2.68 µM), the “MIC Enterococcus faecalis (GC 4554)” value ([3]; Enterococcus faecalis (GC 4554)) was 4 µg/mL (≈ 2.68 µM) and the “MIC Enterococcus faecalis (GC 6189)” value ([3]; Enterococcus faecalis (GC 6189)) was 2 to 4 µg/mL. For the same compound, the “MIC Enterococcus faecium (GC 2243)” value ([3]; Enterococcus faecium (GC 2243)) was 4 µg/mL (≈ 2.68 µM), the “MIC Enterococcus faecium (GC 4556)” value ([3]; Enterococcus faecium (GC 4556)) was 4 µg/mL (≈ 2.68 µM) and the “MIC Enterococcus faecium (GC 4557)” value ([3]; Enterococcus faecium (GC 4557)) was 1 to 2 µg/mL. For the same compound, the “MIC Enterococcus avium (GC 4558)” value [3, 6] was 2 to 4 µg/mL, the “MIC Enterococcus faecalis (ATCC 29212)” value [3, 6] was 4 µg/mL (≈ 2.68 µM) and the “MIC Enterococcus faecalis (GC 2242)” value [3, 6] was 4 µg/mL (≈ 2.68 µM). For the same compound, the “MIC Enterococcus faecalis (GC 2691)” value [3, 6] was 2 to 4 µg/mL, the “MIC Enterococcus faecalis (GC 3059)” value [3, 6] was 2 to 4 µg/mL and the “MIC Enterococcus faecalis (GC 4552)” value [3, 6] was 4 µg/mL (≈ 2.68 µM). The “MIC Enterococcus faecalis (GC 4553)” value [3, 6] was 4 µg/mL (≈ 2.68 µM), the “MIC Enterococcus faecalis (GC 4554)” value [3, 6] was 4 µg/mL (≈ 2.68 µM) and the “MIC Enterococcus faecalis (GC 6189)” value [3, 6] was 2 to 4 µg/mL. For the same compound, the “MIC Enterococcus faecium (GC 2243)” value [3, 6] was 4 µg/mL (≈ 2.68 µM), the “MIC Enterococcus faecium (GC 4556)” value [3, 6] was 4 µg/mL (≈ 2.68 µM) and the “MIC Enterococcus faecium (GC 4557)” value [3, 6] was 1 to 2 µg/mL. The “MIC Escherichia coli (GC 4560)” value [4] was 0.5 to 2 µg/mL and the median effective dose (ED50), Staphylococcus aureus-SMITH (GC 4543) [5] was 0.25 mg/kg.
